The values below come from US6486193B2, “3-substituted pyrrolidines useful as inhibitors of matrix metalloproteinases” (Aventis Pharmaceuticals Inc., priority 1998, dated 2002).

Assay [1] addresses T1, MMP-1 (Homo sapiens, UniProt P03956).
T1 construct: The active MMP-1 was obtained by treatment of proMMP-1 with trypsin; endogenous in cells; host or cells: human rheumatoid synovial fibroblasts stimulated with macrophage-conditioned medium (secreted proenzyme purified from the medium)
T1 sequence (P03956 100-469): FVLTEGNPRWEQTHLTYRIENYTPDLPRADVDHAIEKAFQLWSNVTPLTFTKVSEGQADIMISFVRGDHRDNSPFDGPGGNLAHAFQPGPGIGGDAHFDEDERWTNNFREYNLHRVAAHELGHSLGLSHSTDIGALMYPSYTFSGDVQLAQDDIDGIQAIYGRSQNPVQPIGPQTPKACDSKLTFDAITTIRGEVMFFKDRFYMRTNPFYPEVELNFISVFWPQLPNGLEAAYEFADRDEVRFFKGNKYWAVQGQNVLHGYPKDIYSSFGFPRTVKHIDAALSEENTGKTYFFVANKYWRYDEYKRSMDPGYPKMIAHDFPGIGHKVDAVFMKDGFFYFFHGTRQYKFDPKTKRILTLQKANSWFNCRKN
In words: Determination of inhibition constant (Ki) for MMP-1, fluorogenic substrate. In kind it is biochemical. To be noted: footnote: results are identical for MMP-1, MMP-2, MMP-3, MMP-13 and MMP-14, read-out: MMP Ki app. How it is done: ProMMP-1 (EC 3.4.24.7; interstitial collagenase) was purified from culture medium of human rheumatoid synovial fibroblasts stimulated with macrophage-conditioned medium according to Okada, Y. et al., J. Biol. Chem. 261, 14245-14255 (1986). The active MMP-1 was obtained by treatment of proMMP-1 with trypsin (5 μg/mL) at 37° C. for 30 minutes, followed by addition of soybean trypsin inhibitor (50 μg/mL).
Determination of Inhibition Constant (Ki) for MMP-1 The activated MMP-1 is assayed using a fluorogenic substrate, Mca-Pro-Leu-Gly-Leu-Dpa-Ala-Arg-NH2, Knight, C. G. et al., FEBS Lett. 296, 263-266 (1992), at 37° C. in 2.0 mL of assay buffer containing 50 mM Tris, pH 7.6, 0.2 M sodium chloride, 50 mM calcium chloride, and 0.02% Brij-35. The increase in fluorescence due to cleavage of Gly-Leu peptide bond by MMP-3 was monitored with Perkin-Elmer LS50B Fluorimeter (λex328 nm, λem 393 nm, excitation slit 2.5, emission slit 10). Substrate and inhibitor stock solutions were made in DMF. For determination of Ki values for MMP-1 inhibitors, a series of intermediate inhibitor solutions were prepared in DMF and 1 or 2 μL of the diluted inhibitor solution was mixed with 1 μL of 2 mM substrate solution in DMF in a quartz cuvette containing 2 mL of assay buffer. The enzyme (10 μL of 0.2 μM MMP-3 dilution in assay buffer) was added at the last to start the reaction. For routine measurement of a Ki value for a reversible, competitive inhibitor, the initial rates in the presence of at least four inhibitor concentrations (two concentrations above Ki and two concentrations below Ki) were measured using [S]=1 μM (<<Km) and [MMP-1]=0.8 nM. Under these conditions, the measured Ki app is close to true Ki.
The Ki for a competitive inhibitor is calculated using: v0/vi=(1+[I]/Ki, app) and Ki=Ki, app/(1+[S]/Km), where v0 is the initial rate in the absence of inhibitor, vi is the initial rate in the presence of inhibitor at the concentration of [I], [S] is the substrate concentration, and Km is the Michaelis constant. If slow binding is observed (i.e. if the approach to the binding equilibrium is slow), the final steady-state rate rather than the initial rate is taken as vi.

Assay [2] deals with T2, MMP-2 (Homo sapiens, UniProt P08253).
T2 construct: made in house; host or cells: Pichia pastoris (vector pHIL-D2; strains KM71 and SMD1168; clone 24S)
T2 sequence (P08253 110-660): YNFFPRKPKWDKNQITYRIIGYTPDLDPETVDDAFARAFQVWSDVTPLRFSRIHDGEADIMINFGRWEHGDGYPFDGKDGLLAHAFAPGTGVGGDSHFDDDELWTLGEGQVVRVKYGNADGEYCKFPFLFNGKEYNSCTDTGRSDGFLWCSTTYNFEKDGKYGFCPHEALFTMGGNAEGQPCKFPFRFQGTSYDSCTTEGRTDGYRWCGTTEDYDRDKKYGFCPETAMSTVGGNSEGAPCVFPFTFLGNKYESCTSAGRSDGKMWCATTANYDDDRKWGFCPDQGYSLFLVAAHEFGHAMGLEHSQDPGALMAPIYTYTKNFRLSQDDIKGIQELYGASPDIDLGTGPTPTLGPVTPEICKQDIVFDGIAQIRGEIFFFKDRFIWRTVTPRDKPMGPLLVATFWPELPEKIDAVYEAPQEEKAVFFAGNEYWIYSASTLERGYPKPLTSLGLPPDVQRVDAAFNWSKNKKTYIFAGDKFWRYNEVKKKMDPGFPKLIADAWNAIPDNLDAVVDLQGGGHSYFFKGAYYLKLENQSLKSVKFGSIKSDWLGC
In words: Determination of inhibition constant (Ki) for MMP-2, fluorogenic substrate. Format: biochemical. To be noted: footnote: results are identical for MMP-1, MMP-2, MMP-3, MMP-13 and MMP-14, read-out: MMP Ki app. From the text: Recombinant MMP-2 was purified from the fermentation broth of yeast Pichia pastoris that carries the integrated MMP-2 gene into its chromosome. In brief, the full-length cDNA for MMP-2 was obtained by reverse transcription of RNA from human melanoma A375M cell line by the reverse transcriptase polymerase chain reaction (RT-PCR) using sequence specific oligonucleotides. The nucleotide sequence was confirmed by Taq cycle sequencing. The cDNA was ligated into the Pichia pastoris expression vector pHIL-D2 in such a way that the expression of pro-MMP-2 is under the control of the methanol inducible alcohol oxidase promoter. The expression construct was digested with either SalI or NsiI and used to transform the Pichia pastoris strains KM71 and SMD1 168. A large-scale culture of a selected clone designated 24S was performed in a high cell density fermentor and the recombinant MMP-2 was purified from the culture supernatant by gelatin-sepharose 4B (Pharmacia). The enzyme is sufficiently pure at this stage for routine measurement of inhibition. If desired, however, the enzyme may be further purified by AcA 44 gel filtration (Spectra).
The active MMP-2 was obtained by activation of proMMP-2 at 37° C. for 1 h with 4-aminophenylmercuric acetate which was then removed by a Sephadex G-50 spin column. The enzyme is assayed using a fluorogenic substrate, Mca-Pro-Leu-Gly-Leu-Dpa-Ala-Arg-NH2, at 37° C. in 2.0 mL of assay buffer containing 50 mM Tris, pH 7.6, 0.2 M sodium chloride, 50 mM calcium chloride, 0.02% Brij-35, and 50 μM β-mercaptoethanol. The increase in fluorescence is monitored (λex 328 nm, λem 393 nm). Substrate and inhibitor stock solutions are made in DMF. The enzyme is added at the last to start the reaction. For routine measurement of a Ki value for a reversible, competitive inhibitor, the initial rates in the presence of at least four inhibitor concentrations (two inhibitor concentrations above Ki and two below Ki) are measured using [S]=1 μM (<<Km) and [MMP-2]=0.4 nM. Under these conditions, the measured Ki, app is close to true Ki.

Turning to `CNC(=O)[C@H](Cc1cccnc1)NC(=O)[C@@H]1[C@H](Cc2ccccc2)CCN1C(=O)[C@@H](S)C(C)C` [Compound 1d, (2S,3R)-3-Benzyl-1-((S)-2-mercapto-3-methyl-butanoyl)-pyrrolidine-2-carboxylic acid ((S)-1-methylcarbamoyl-2-pyridin-3-yl-ethyl)-amide], the Ki in assay [1] and in assay [2] was greater than 10 µM throughout.
For the compound `CNC(=O)[C@@H](NC(=O)[C@@H]1[C@H](Cc2ccccc2)CCN1C(=O)[C@@H](S)C(C)C)C(C)(C)C` [Compound 1h, (2S,3R)-3-Benzyl-1-((S)-2-mercapto-3-methyl-butanoyl)-pyrrolidine-2-carboxylic acid ((S)-2,2-dimethyl-1-methylcarbamoyl-propyl)-amide], the Ki in assay [1] and in assay [2] was greater than 10 µM throughout.
As for `CNC(=O)[C@@H](Cc1cccnc1)NC(=O)[C@@H]1C(Cc2ccccc2)CCN1C(=O)[C@@H](S)C(C)C` (stereo in doubt) [Compound 1f, (2S,3S)-3-Benzyl-1-((S)-2-mercapto-3-methyl-butanoyl)-pyrrolidine-2-carboxylic acid ((R)-1-methylcarbamoyl-2-pyridin-3-yl-ethyl)-amide], the Ki in assay [1] and in assay [2] was greater than 10 µM each time.
As for `CNC(=O)[C@@H](Cc1cccnc1)NC(=O)[C@@H]1[C@@H](Cc2ccccc2)CCN1C(=O)[C@@H](S)C(C)C` [Compound 1e, (2S,3S)-3-Benzyl-1-((S)-2-mercapto-3-methyl-butanoyl)-pyrrolidine-2-carboxylic acid ((R)-1-methylcarbamoyl-2-pyridin-3-yl-ethyl)-amide], the Ki in assay [1] and in assay [2] was greater than 10 µM in each case.
`CNC(=O)[C@@H](NC(=O)[C@@H]1[C@@H](Cc2ccccc2)CCN1C(=O)[C@@H](S)C(C)C)C(C)(C)C` [Compound 1g, (2S,3S)-3-Benzyl-1-((S)-2-mercapto-3-methyl-butanoyl)-pyrrolidine-2-carboxylic acid ((S)-2,2-dimethyl-1-methylcarbamoyl-propyl)-amide]: the Ki in assay [1] and in assay [2] was greater than 10 µM each time.
For the compound `CNC(=O)[C@H](Cc1cccnc1)NC(=O)[C@@H]1[C@@H](Cc2ccccc2)CCN1C(=O)[C@@H](S)C(C)C` [Compound 1c, (2S,3S)-3-Benzyl-1-((S)-2-mercapto-3-methyl-butanoyl)-pyrrolidine-2-carboxylic acid ((S)-1-methylcarbamoyl-2-pyridin-3-yl-ethyl)-amide], the Ki in assay [1] and in assay [2] was greater than 10 µM in each case.
As to `CNC(=O)[C@H](Cc1ccc(O)cc1)NC(=O)[C@@H]1[C@@H](Cc2ccccc2)CCN1C(=O)[C@@H](S)C(C)C` [Compound 1a, (2S,3S)-3-Benzyl-1-((S)-2-mercapto-3-methyl-butanoyl)-pyrrolidine-2-carboxylic acid [(S)-2-(4-hydroxy-phenyl)-1-methylcarbamoyl-ethyl]-amide], the Ki in assay [1] and in assay [2] was greater than 10 µM in each case.
For `CNC(=O)[C@H](Cc1ccc(O)cc1)NC(=O)[C@@H]1[C@H](Cc2ccccc2)CCN1C(=O)[C@@H](S)C(C)C` [Compound 1b, (2S,3R)-3-Benzyl-1-((S)-2-mercapto-3-methyl-butanoyl)-pyrrolidine-2-carboxylic acid [(S)-2-(4-hydroxy-phenyl)-1-methylcarbamoyl-ethyl]-amide], the Ki in assay [1] and in assay [2] was greater than 10 µM throughout.
